Test results as given in ChEMBL document CHEMBL3885861, “Open TG-GATES”.

Species: Rattus norvegicus
Test: Open TG-GATES - Regimen: Single
Format: toxicity, organism-based, Sprague-Dawley
Parameters: regimen Single, gender Male, age 6 weeks
Details: in vivo, po, route gavage; for TP / gamma-GTP / A/G / ALP / ALT / AST / BUN / CRE / Ca / Cl / GLC / IP / K / LDH / Na / PL / RALB / TC / TG: tissue Plasma; for APTT / Bas / Eos / Fbg / Hb / Ht / Lym / MCH / MCHC / MCV / Mono / Neu / PT / Plat / RBC / Ret / WBC: tissue Blood; for KIDNEY_L / KIDNEY_R / KIDNEY_TOTAL: tissue Kidney; for LIVER: tissue Liver
[1] = 1000 mg/kg, 24 h, dose level Middle
[2] = 2000 mg/kg, 3 h, dose level High
[3] = 2000 mg/kg, 6 h, dose level High
[4] = 2000 mg/kg, 9 h, dose level High
[5] = 2000 mg/kg, 24 h, dose level High

`O=C(O)c1ccccc1Nc1ccccc1` [FENAMIC ACID] gave a TP [1] of 5.6 g/dL, a gamma-GTP [1] of 1 IU/L and a TERMINAL_BW [2] of 207.1 g. The APTT [2] was 15.4 s, the Bas [2] was 0.8% and the Eos [2] was 0.8%. For the same compound, the Fbg [2] was 258.2 mg/dL, the Hb [2] was 13.6 g/dL and the Ht [2] was 39.9%. It also gave a Lym [2] of 67.4%, an MCH [2] of 20.6 pg and an MCHC [2] of 34.1%. It also gave an MCV [2] of 60.6 fL, a Mono [2] of 3.2% and a Neu [2] of 28%. It also gave a PT [2] of 13.9 s, a Plat [2] of 113.5 x10_4/uL and an RBC [2] of 658.8 x10_4/ul. For the same compound, the Ret [2] was 7.9%, the WBC [2] was 76.3 x10_2/uL and the KIDNEY_L [2] was 0.9 g. The KIDNEY_R [2] was 0.9 g, the KIDNEY_TOTAL [2] was 1.9 g and the LIVER [2] was 7.7 g. It also gave an A/G [2] of 0.9, an ALP [2] of 1464.2 IU/L and an ALT [2] of 41 IU/L. It also gave an AST [2] of 75.6 IU/L, a BUN [2] of 10.8 mg/dL and a CRE [2] of 0.1 mg/dL. The Ca [2] was 10.9 mg/dL, the Cl [2] was 102.8 meq/L and the GLC [2] was 181.8 mg/dL. For the same compound, the IP [2] was 10.9 mg/dL, the K [2] was 4.1 meq/L and the LDH [2] was 88.2 IU/L. For the same compound, the Na [2] was 143.4 meq/L, the PL [2] was 93.4 mg/dL and the RALB [2] was 2.6 g/dL. For the same compound, the TC [2] was 52 mg/dL, the TG [2] was 28.4 mg/dL and the TP [2] was 5.5 g/dL. The gamma-GTP [2] was 1.2 IU/L, the TERMINAL_BW [3] was 206.9 g and the APTT [3] was 15.5 s. The Bas [3] was 0.8%, the Eos [3] was 1% and the Fbg [3] was 277.4 mg/dL. It also gave a Hb [3] of 13.7 g/dL, a Ht [3] of 40.6% and a Lym [3] of 71.2%. For the same compound, the MCH [3] was 21 pg, the MCHC [3] was 33.6% and the MCV [3] was 62.6 fL. It also gave a Mono [3] of 3%, a Neu [3] of 24% and a PT [3] of 14.2 s. For the same compound, the Plat [3] was 122.7 x10_4/uL, the RBC [3] was 649.2 x10_4/ul and the Ret [3] was 8.1%. The WBC [3] was 106.2 x10_2/uL, the KIDNEY_L [3] was 1 g and the KIDNEY_R [3] was 1 g. For the same compound, the KIDNEY_TOTAL [3] was 2 g, the LIVER [3] was 7.4 g and the A/G [3] was 0.9. The ALP [3] was 1541.4 IU/L, the ALT [3] was 36.4 IU/L and the AST [3] was 76.2 IU/L. For the same compound, the BUN [3] was 12 mg/dL, the CRE [3] was 0.1 mg/dL and the Ca [3] was 11.2 mg/dL. It also gave a Cl [3] of 105.6 meq/L, a GLC [3] of 133.2 mg/dL and an IP [3] of 11.6 mg/dL. The K [3] was 4 meq/L, the LDH [3] was 92.8 IU/L and the Na [3] was 145.4 meq/L. The PL [3] was 105.2 mg/dL, the RALB [3] was 2.6 g/dL and the TC [3] was 49.8 mg/dL. For the same compound, the TG [3] was 34.2 mg/dL, the TP [3] was 5.6 g/dL and the gamma-GTP [3] was 1 IU/L. It also gave a TERMINAL_BW [4] of 209.9 g, an APTT [4] of 21.5 s and a Bas [4] of 0.6%. It also gave an Eos [4] of 1%, a Fbg [4] of 307.4 mg/dL and a Hb [4] of 13.6 g/dL. It also gave a Ht [4] of 39.9%, a Lym [4] of 64.6% and an MCH [4] of 20.7 pg. For the same compound, the MCHC [4] was 34%, the MCV [4] was 60.8 fL and the Mono [4] was 3.2%. The Neu [4] was 30.4%, the PT [4] was 14.8 s and the Plat [4] was 110.5 x10_4/uL. It also gave an RBC [4] of 656.8 x10_4/ul, a Ret [4] of 8.2% and a WBC [4] of 93.3 x10_2/uL. The KIDNEY_L [4] was 1 g, the KIDNEY_R [4] was 0.9 g and the KIDNEY_TOTAL [4] was 1.9 g. For the same compound, the LIVER [4] was 7.5 g, the A/G [4] was 0.9 and the ALP [4] was 1863.4 IU/L. For the same compound, the ALT [4] was 41.8 IU/L, the AST [4] was 82.2 IU/L and the BUN [4] was 14.6 mg/dL. For the same compound, the CRE [4] was 0.1 mg/dL, the Ca [4] was 11.1 mg/dL and the Cl [4] was 105.6 meq/L. It also gave a GLC [4] of 144.6 mg/dL, an IP [4] of 11.3 mg/dL and a K [4] of 3.9 meq/L. It also gave an LDH [4] of 80.8 IU/L, a Na [4] of 145.6 meq/L and a PL [4] of 105.8 mg/dL. It also gave an RALB [4] of 2.7 g/dL, a TC [4] of 45 mg/dL and a TG [4] of 50.2 mg/dL. For the same compound, the TP [4] was 5.7 g/dL, the gamma-GTP [4] was 1 IU/L and the TERMINAL_BW [5] was 211.9 g. The APTT [5] was 15.6 s, the Bas [5] was 1% and the Eos [5] was 0.6%. For the same compound, the Fbg [5] was 436 mg/dL, the Hb [5] was 13.9 g/dL and the Ht [5] was 40.7%. The Lym [5] was 55.8%, the MCH [5] was 20.5 pg and the MCHC [5] was 34.1%. For the same compound, the MCV [5] was 60.2 fL, the Mono [5] was 3.4% and the Neu [5] was 39%. For the same compound, the PT [5] was 15.2 s, the Plat [5] was 121.1 x10_4/uL and the RBC [5] was 675.2 x10_4/ul. It also gave a Ret [5] of 8.7%, a WBC [5] of 138 x10_2/uL and a KIDNEY_L [5] of 1 g. It also gave a KIDNEY_R [5] of 1 g, a KIDNEY_TOTAL [5] of 2 g and an LIVER [5] of 8.4 g. For the same compound, the A/G [5] was 0.8, the ALP [5] was 2104 IU/L and the ALT [5] was 41.6 IU/L. It also gave an AST [5] of 62.2 IU/L, a BUN [5] of 19.2 mg/dL and a CRE [5] of 0.1 mg/dL. For the same compound, the Ca [5] was 11.2 mg/dL, the Cl [5] was 102.8 meq/L and the GLC [5] was 145.8 mg/dL. It also gave an IP [5] of 9.4 mg/dL, a K [5] of 3.7 meq/L and an LDH [5] of 131.8 IU/L. It also gave a Na [5] of 141.2 meq/L, a PL [5] of 91.4 mg/dL and an RALB [5] of 2.6 g/dL. It also gave a TC [5] of 38.2 mg/dL, a TG [5] of 49.2 mg/dL and a TP [5] of 5.7 g/dL. It also gave a gamma-GTP [5] of 1 IU/L.
